Test results published in ChEMBL document CHEMBL1150064, “Scoparic acid A, a beta-glucuronidase inhibitor from Scoparia dulcis” (J Nat Prod, 1992).

T1: Beta-glucuronidase (Bos taurus) (UniProt A3KMY8)
T1 sequence (whole entry): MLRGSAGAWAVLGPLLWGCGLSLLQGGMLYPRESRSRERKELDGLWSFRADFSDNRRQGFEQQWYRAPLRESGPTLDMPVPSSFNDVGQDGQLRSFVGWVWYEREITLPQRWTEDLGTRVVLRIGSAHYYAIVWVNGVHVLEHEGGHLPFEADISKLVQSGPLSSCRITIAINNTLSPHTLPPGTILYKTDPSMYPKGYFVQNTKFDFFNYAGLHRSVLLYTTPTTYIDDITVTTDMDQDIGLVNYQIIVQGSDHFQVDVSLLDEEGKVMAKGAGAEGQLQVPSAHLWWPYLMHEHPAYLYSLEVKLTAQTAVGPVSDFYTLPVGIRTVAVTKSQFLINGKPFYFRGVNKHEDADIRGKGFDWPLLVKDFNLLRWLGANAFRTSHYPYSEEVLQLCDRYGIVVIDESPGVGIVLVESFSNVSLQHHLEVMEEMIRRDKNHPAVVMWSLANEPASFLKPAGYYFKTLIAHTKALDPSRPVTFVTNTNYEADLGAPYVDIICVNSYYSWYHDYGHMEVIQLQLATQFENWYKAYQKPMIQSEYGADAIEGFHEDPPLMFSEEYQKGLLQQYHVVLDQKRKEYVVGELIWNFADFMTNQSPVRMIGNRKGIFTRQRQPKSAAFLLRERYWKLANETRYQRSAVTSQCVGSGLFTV

T2: Beta-glucuronidase (Bos taurus, UniProt A3KMY8)
T2 sequence (A3KMY8 whole entry): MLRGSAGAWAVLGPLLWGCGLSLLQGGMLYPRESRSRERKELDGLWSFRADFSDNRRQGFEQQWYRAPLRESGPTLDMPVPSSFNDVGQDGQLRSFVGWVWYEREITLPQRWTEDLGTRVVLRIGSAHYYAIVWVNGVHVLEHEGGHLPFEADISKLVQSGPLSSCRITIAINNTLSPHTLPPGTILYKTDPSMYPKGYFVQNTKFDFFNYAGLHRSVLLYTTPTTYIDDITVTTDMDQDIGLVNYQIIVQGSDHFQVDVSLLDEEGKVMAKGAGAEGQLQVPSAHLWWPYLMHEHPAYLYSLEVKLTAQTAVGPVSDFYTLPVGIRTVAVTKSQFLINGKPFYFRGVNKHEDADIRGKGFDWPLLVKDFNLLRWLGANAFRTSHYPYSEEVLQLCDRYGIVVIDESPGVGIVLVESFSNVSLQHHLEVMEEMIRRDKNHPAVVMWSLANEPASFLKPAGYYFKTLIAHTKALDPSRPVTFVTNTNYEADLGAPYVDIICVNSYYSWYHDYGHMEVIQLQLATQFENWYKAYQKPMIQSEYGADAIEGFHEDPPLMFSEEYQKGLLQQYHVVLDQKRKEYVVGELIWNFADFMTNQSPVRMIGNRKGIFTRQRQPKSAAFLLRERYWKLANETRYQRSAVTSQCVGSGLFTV


Columns and labels:
[1] = molecular target: T1, Beta-glucuronidase (Bos taurus); experiment: Inhibition of bovine beta-glucuroniase assessed as decrease in enzyme inhibition in presence of BSA; conditions: concentration not given here
[2] = molecular target: T2, Beta-glucuronidase; experiment: Inhibition of bovine beta-glucuronidase
[3] = substrate: C=C1C[C@@H](OC(=O)c2ccccc2)[C@@H]2[C@](C)(CCC[C@@]2(C)C(=O)O)[C@@H]1CC/C(C)=C/CO; experiment: Activity at bovine beta-glucuroniase by Lineweaver-Burke plot; conditions: Bos taurus

Molecule | inhibition [1] [%] | IC50 [2] [µM] | Km [3] [mM]
C=C1C[C@@H](OC(=O)c2ccccc2)[C@@H]2[C@](C)(CCC[C@@]2(C)C(=O)O)[C@@H]1CC/C(C)=C/CO [SCOPARIC ACID A] | 5 | 6.8 | –
Beta-glucuronidase (Bos taurus), A3KMY8 (protein) MLRGSAGAWAVLGPLLWGCGLSLLQGGMLYPRESRSRERKELDGLWSFRADFSDNRRQGFEQQWYRAPLRESGPTLDMPVPSSFNDVGQDGQLRSFVGWVWYEREITLPQRWTEDLGTRVVLRIGSAHYYAIVWVNGVHVLEHEGGHLPFEADISKLVQSGPLSSCRITIAINNTLSPHTLPPGTILYKTDPSMYPKGYFVQNTKFDFFNYAGLHRSVLLYTTPTTYIDDITVTTDMDQDIGLVNYQIIVQGSDHFQVDVSLLDEEGKVMAKGAGAEGQLQVPSAHLWWPYLMHEHPAYLYSLEVKLTAQTAVGPVSDFYTLPVGIRTVAVTKSQFLINGKPFYFRGVNKHEDADIRGKGFDWPLLVKDFNLLRWLGANAFRTSHYPYSEEVLQLCDRYGIVVIDESPGVGIVLVESFSNVSLQHHLEVMEEMIRRDKNHPAVVMWSLANEPASFLKPAGYYFKTLIAHTKALDPSRPVTFVTNTNYEADLGAPYVDIICVNSYYSWYHDYGHMEVIQLQLATQFENWYKAYQKPMIQSEYGADAIEGFHEDPPLMFSEEYQKGLLQQYHVVLDQKRKEYVVGELIWNFADFMTNQSPVRMIGNRKGIFTRQRQPKSAAFLLRERYWKLANETRYQRSAVTSQCVGSGLFTV | – | – | 14.3

The next lines start with results.

inhibition [1] [%] | IC50 [2] [µM] | Molecule | Km [3] [mM]
– | > 100 | C=C1C[C@@H](OC(=O)c2ccccc2)[C@@H]2[C@](C)(CCC[C@@]2(C)C(=O)O)[C@@H]1CCC(C)=O [SCOPARIC ACID B] | –
– | 10 | C=C(C=O)CC[C@@H]1C(=C)C[C@@H](OC(=O)c2ccccc2)[C@@H]2[C@]1(C)CCC[C@@]2(C)C(=O)O [SCOPARIC ACID C] | –
